Results taken from patent publication US9708314B2, “Heterocyclic amide compound” (NISSAN CHEMICAL INDUSTRIES, LTD., priority 2013, dated 2017).

What was measured:
Format in all cases: in vivo
Brassica campestris L. = assay: Test Example 4: effect on crop by application to foliage (diluvial soil, plastic box); conditions: 320 g/ha; for effect on crop, g (Brassica campestris L.): application to foliage
How it was run: (§1)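 Greenhouse plants (25° C. to 30° C., 14 d, diluvial soil) receive a foliar spray of water-diluted emulsifiable formulation at defined g/ha. Grading after 3 weeks uses a six-step herbicidal-ratio scale, with 4 covering 70% to <90% and 1 covering 5% to <20%.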

Glycine max = assay: as above; conditions: 320 g/ha; for effect on crop, c (Glycine max): application to foliage
How it was run: as §1

[1] = test system: Beta vulgaris ssp. vulgaris; assay: as above; conditions: 320 g/ha; for effect on crop, f (Beta vulgaris ssp. vulgaris): application to foliage
How it was run: as §1

[2] = test system: directly sowed Oryza sativa; assay: as above; conditions: 320 g/ha; for effect on crop, d (directly sowed Oryza sativa): application to foliage
How it was run: as §1

Triticum aestivum = assay: as above; conditions: 320 g/ha; for effect on crop, e (Triticum aestivum): application to foliage
How it was run: as §1

Zea mays = assay: as above; conditions: 320 g/ha; for effect on crop, b (Zea mays): application to foliage
How it was run: as §1

Leptochloa chinensis = assay: Test Example 3: herbicidal effect by application to foliage (Wagner pot, water depth 0.1-0.5 cm); conditions: Nineteenth Table; application to foliage; application herbicide amount 320 g/ha
How it was run: (§2)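 Greenhouse pot test, 25–30 °C, alluvial soil. Sown seedlings grown 14 days then sprayed on leaves and stems with emulsion diluted to target g/ha. Rating at 3 weeks, 0–5 scale (0 ≤5%, 5 ≥90%).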

Cyperus difformis = assay: as above; conditions: Nineteenth Table; application to foliage; application herbicide amount 320 g/ha
How it was run: as §2

[3] = test system: Echinochloa crus-galli var. crus-galli; assay: as above; conditions: Nineteenth Table; application to foliage; application herbicide amount 320 g/ha
How it was run: as §2

Lolium multiflorum Lam. = assay: Test Example 4: herbicidal effect by application to foliage (diluvial soil, plastic box); conditions: 320 g/ha; for herbicidal effect, K (Lolium multiflorum Lam.): application to foliage
How it was run: as §1

Setaria viridis = assay: as above; conditions: 320 g/ha; for herbicidal effect, G (Setaria viridis): application to foliage
How it was run: as §1

Veronica persica = assay: as above; conditions: 320 g/ha; for herbicidal effect, R (Veronica persica): application to foliage
How it was run: as §1

Alopecurus myosuroides = assay: as above; conditions: 320 g/ha; for herbicidal effect, J (Alopecurus myosuroides): application to foliage
How it was run: as §1

Galium spurium = assay: as above; conditions: 320 g/ha; for herbicidal effect, Q (Galium spurium): application to foliage
How it was run: as §1

Stellaria media = assay: as above; conditions: 320 g/ha; for herbicidal effect, P (Stellaria media): application to foliage
How it was run: as §1

Amaranthus retroflexus = assay: as above; conditions: 320 g/ha; for herbicidal effect, N (Amaranthus retroflexus): application to foliage
How it was run: as §1

Chenopodium album = assay: as above; conditions: 320 g/ha; for herbicidal effect, O (Chenopodium album): application to foliage
How it was run: as §1

Apera spica-venti. = assay: as above; conditions: 320 g/ha; for herbicidal effect, L (Apera spica-venti.): application to foliage
How it was run: as §1

Abutilon theophrasti = assay: as above; conditions: 320 g/ha; for herbicidal effect, M (Abutilon theophrasti): application to foliage
How it was run: as §1

[4] = test system: Echinochloa crus-galli var. crus-galli; assay: as above; conditions: 320 g/ha; for herbicidal effect, H (Echinochloa crus-galli var. crus-galli): application to foliage
How it was run: as §1

Avena fatua = assay: as above; conditions: 320 g/ha; for herbicidal effect, I (Avena fatua): application to foliage
How it was run: as §1

Digitaria ciliaris = assay: as above; conditions: 320 g/ha; for herbicidal effect, F (Digitaria ciliaris): application to foliage
How it was run: as §1

Compound	effect on crop, g (Brassica campestris L.) (Brassica campestris L.)	effect on crop, c (Glycine max) (Glycine max)	effect on crop, f (Beta vulgaris ssp. vulgaris) [1]	effect on crop, d (directly sowed Oryza sativa) [2]	effect on crop, e (Triticum aestivum) (Triticum aestivum)	effect on crop, b (Zea mays) (Zea mays)	D (herbicidal effect grade) (Leptochloa chinensis)	E (herbicidal effect grade) (Cyperus difformis)	H (herbicidal effect grade) [3]	herbicidal effect, K (Lolium multiflorum Lam.) (Lolium multiflorum Lam.)	herbicidal effect, G (Setaria viridis) (Setaria viridis)	herbicidal effect, R (Veronica persica) (Veronica persica)	herbicidal effect, J (Alopecurus myosuroides) (Alopecurus myosuroides)	herbicidal effect, Q (Galium spurium) (Galium spurium)	herbicidal effect, P (Stellaria media) (Stellaria media)	herbicidal effect, N (Amaranthus retroflexus) (Amaranthus retroflexus)	herbicidal effect, O (Chenopodium album) (Chenopodium album)	herbicidal effect, L (Apera spica-venti.) (Apera spica-venti.)	herbicidal effect, M (Abutilon theophrasti) (Abutilon theophrasti)	herbicidal effect, H (Echinochloa crus-galli var. crus-galli) [4]	other results
COc1ccc(CSc2nnc3c(C(=O)Nc4nnnn4C)ccc(C(F)(F)F)n23)cc1 [2-077]	2 (Herbicidal ratio of 20% or more and less than 40%)	0 (Herbicidal ratio of 5% or less (almost no effect))	5 (Herbicidal ratio of 90% or more (almost completely withered))	2 (Herbicidal ratio of 20% or more and less than 40%)	0 (Herbicidal ratio of 5% or less (almost no effect))	0 (Herbicidal ratio of 5% or less (almost no effect))	4 (Herbicidal ratio of 70% or more and less than 90%)	3 (Herbicidal ratio of 40% or more and less than 70%)	2 (Herbicidal ratio of 20% or more and less than 40%)	0 (Herbicidal ratio of 5% or less (almost no effect))	2 (Herbicidal ratio of 20% or more and less than 40%)	3 (Herbicidal ratio of 40% or more and less than 70%)	0 (Herbicidal ratio of 5% or less (almost no effect))	3 (Herbicidal ratio of 40% or more and less than 70%)	4 (Herbicidal ratio of 70% or more and less than 90%)	5 (Herbicidal ratio of 90% or more (almost completely withered))	5 (Herbicidal ratio of 90% or more (almost completely withered))	0 (Herbicidal ratio of 5% or less (almost no effect))	4 (Herbicidal ratio of 70% or more and less than 90%)	4 (Herbicidal ratio of 70% or more and less than 90%)	herbicidal effect, I (Avena fatua) (Avena fatua): 0 (Herbicidal ratio of 5% or less (almost no effect)); herbicidal effect, F (Digitaria ciliaris) (Digitaria ciliaris): 4 (Herbicidal ratio of 70% or more and less than 90%)
CC(C)c1nnc2c(C(=O)Nc3nnnn3-c3ccccc3)ccc(C(F)(F)F)n12 [2-073]	–	–	–	–	–	–	3 (Herbicidal ratio of 40% or more and less than 70%)	5 (Herbicidal ratio of 90% or more (almost completely withered))	4 (Herbicidal ratio of 70% or more and less than 90%)	–	–	–	–	–	–	–	–	–	–	–	g (Brassica campestris L.) effect on crop grade (Brassica campestris L.; foliage application): 0 (Herbicidal ratio of 5% or less (almost no effect)); c (Glycine max) effect on crop grade (Glycine max; foliage application): 0 (Herbicidal ratio of 5% or less (almost no effect)); f (Beta vulgaris ssp. vulgaris) effect on crop grade ([1]; foliage application): 3 (Herbicidal ratio of 40% or more and less than 70%); d (directly sowed Oryza sativa) effect on crop grade ([2]; foliage application): 2 (Herbicidal ratio of 20% or more and less than 40%); e (Triticum aestivum) effect on crop grade (Triticum aestivum; foliage application): 0 (Herbicidal ratio of 5% or less (almost no effect)); b (Zea mays) effect on crop grade (Zea mays; foliage application): 0 (Herbicidal ratio of 5% or less (almost no effect)); K (Lolium multiflorum Lam.) herbicidal effect grade (Lolium multiflorum Lam.; foliage application): 1 (Herbicidal ratio of 5% or more and less than 20%); G (Setaria viridis) herbicidal effect grade (Setaria viridis; foliage application): 1 (Herbicidal ratio of 5% or more and less than 20%); R (Veronica persica) herbicidal effect grade (Veronica persica; foliage application): 2 (Herbicidal ratio of 20% or more and less than 40%); J (Alopecurus myosuroides) herbicidal effect grade (Alopecurus myosuroides; foliage application): 0 (Herbicidal ratio of 5% or less (almost no effect)); Q (Galium spurium) herbicidal effect grade (Galium spurium; foliage application): 0 (Herbicidal ratio of 5% or less (almost no effect)); P (Stellaria media) herbicidal effect grade (Stellaria media; foliage application): 4 (Herbicidal ratio of 70% or more and less than 90%); N (Amaranthus retroflexus) herbicidal effect grade (Amaranthus retroflexus; foliage application): 3 (Herbicidal ratio of 40% or more and less than 70%); O (Chenopodium album) herbicidal effect grade (Chenopodium album; foliage application): 5 (Herbicidal ratio of 90% or more (almost completely withered)); L (Apera spica-venti.) herbicidal effect grade (Apera spica-venti.; foliage application): 0 (Herbicidal ratio of 5% or less (almost no effect)); M (Abutilon theophrasti) herbicidal effect grade (Abutilon theophrasti; foliage application): 3 (Herbicidal ratio of 40% or more and less than 70%); H (Echinochloa crus-galli var. crus-galli) herbicidal effect grade ([4]; foliage application): 4 (Herbicidal ratio of 70% or more and less than 90%); I (Avena fatua) herbicidal effect grade (Avena fatua; foliage application): 1 (Herbicidal ratio of 5% or more and less than 20%); F (Digitaria ciliaris) herbicidal effect grade (Digitaria ciliaris; foliage application): 1 (Herbicidal ratio of 5% or more and less than 20%)
Cn1nnnc1NC(=O)c1ccc(C(F)(F)F)n2c(=O)n(C)nc12 [6-002]	3 (Herbicidal ratio of 40% or more and less than 70%)	0 (Herbicidal ratio of 5% or less (almost no effect))	3 (Herbicidal ratio of 40% or more and less than 70%)	3 (Herbicidal ratio of 40% or more and less than 70%)	0 (Herbicidal ratio of 5% or less (almost no effect))	0 (Herbicidal ratio of 5% or less (almost no effect))	5 (Herbicidal ratio of 90% or more (almost completely withered))	4 (Herbicidal ratio of 70% or more and less than 90%)	5 (Herbicidal ratio of 90% or more (almost completely withered))	0 (Herbicidal ratio of 5% or less (almost no effect))	3 (Herbicidal ratio of 40% or more and less than 70%)	4 (Herbicidal ratio of 70% or more and less than 90%)	0 (Herbicidal ratio of 5% or less (almost no effect))	3 (Herbicidal ratio of 40% or more and less than 70%)	5 (Herbicidal ratio of 90% or more (almost completely withered))	5 (Herbicidal ratio of 90% or more (almost completely withered))	5 (Herbicidal ratio of 90% or more (almost completely withered))	0 (Herbicidal ratio of 5% or less (almost no effect))	5 (Herbicidal ratio of 90% or more (almost completely withered))	5 (Herbicidal ratio of 90% or more (almost completely withered))	herbicidal effect, I (Avena fatua) (Avena fatua): 1 (Herbicidal ratio of 5% or more and less than 20%); herbicidal effect, F (Digitaria ciliaris) (Digitaria ciliaris): 4 (Herbicidal ratio of 70% or more and less than 90%)
